Values after ≈ are worked out from the molar mass of the structure shown. “Also recorded” adds a separate entry of the source. Where two headings read alike, the source gives them in different places. Marks after values point to notes of the source that are not given here.
Tests used:
female Jcl:ICR mice [1] = conditions: i.p.; for Lethality: female mice
male Jcl:ICR mice [2] = assay: Sub-acute toxicity, 14 days oral: complete blood count; type: in vivo
Description: (§1) The sub-acute toxicity effects were assessed after repeated (14 days) oral administration to male mice. […] The experiments were performed with male Jcl: ICR mice at the same age of 6 weeks and weighing approximately 30–35 g, in which the substances were administered daily for 14 days orally with a gastric tube at approximately the same time of the day. The compounds were solubilized with Tween 80 (0.1%) in distilled water and administered orally in a volume of 0.1 mL per 10.0 g. Animals were observed daily for behavioral changes and signs of toxicity. All results were compared with the positive control isoniazid (INH).
(§2) Serum biochemical parameters were assessed as follows.

DPPH assay = conditions: 0.1 mM DPPH in methanol, 30 min
Description: DPPH (2,2′-diphenyl-1-picrylhydrazyl radical) assay analysis of pure compounds was conducted by the method described by Brand-Williams et al.. First, 500 μL of the test solutions were added to 500 μL of a freshly prepared solution of 0.1 mM DPPH in methanol and incubated in the dark for 30 min. Then the absorbance at 517 nm (A517) was measured against a mixture of DPPH solution and methanol (1:1) as a control.
(§3) All data are presented as IC50, which gave 50% inhibition of the activities and compared against the activity of Trolox—a common antioxidant, at the same concentrations.

HEK-293T = conditions: cited from earlier work
male Jcl:ICR mice [3] = assay: Sub-acute toxicity, 14 days oral: body weight; type: in vivo; conditions: 125 mg/kg oral, end of 14-day period
Description: as §1, §2

male Jcl:ICR mice [4] = assay: Sub-acute toxicity, 14 days oral: serum biochemical parameters; type: in vivo; conditions: serum
Description: as §1, §2

in vivo = conditions: female, Jcl:ICR, mouse, po
ABTS•+ assay = conditions: 15 min at 37 °C
Description: ABTS (2,2′-azino-bis (3-ethylbenzthiazoline-6-sulphonic acid) (7.0 mM) was mixed with potassium persulfate (2.45 mM) to obtain the cationic radical (ABTS•+) The solution was diluted in methanol (2 mL ABTS•+ + 58 mL methanol). The absorption at 743 nm of the resulting working solution was 1.1 ± 0.02 AU. Then, 1.425 mL of ABTS•+ working solution was added to 75 μL of the test drugs, and the absorption at 743 nm was measured after 15 min of incubation at 37 °C against methanol. A blank containing 75 μL of water instead of the test extract also was measured against methanol.
as §3

[5] = test system: GSH in the liver homogenate; assay: Total glutathione in liver homogenate; type: in vivo, mice; conditions: both doses (125 and 250 mg/kg) oral, 14 days
Description: as §2
According to Rahman et al. total glutathione (tGSH) concentration was determined. In the reaction between GSH and 5,5′-dithiobis-2-nitrobenzoic acid (DTNB), the rate of formation of colored substance, 5′-thio-2-nitrobenzoic acid (TNB), is proportional to the concentration of tGSH in the sample. The maximal absorption of colored TNB is at 412 nm. The concentration of tGSH was calculated using oxidized glutathione as a reference standard and was expressed as ng/mg protein.

[6] = test system: MDA in the liver homogenate; assay: Endogenous MDA (spontaneous lipid peroxidation) in liver homogenate; conditions: both doses (125 and 250 mg/kg) oral, 14 days
Description: On day 14, the animals were anesthetized with ketamine/ xylazine and decapitated. […] Livers were taken to assess oxidative stress and antioxidant status in the study groups.
For the in vivo experiments (spontaneous lipid peroxidation) the postnuclear homogenates of the liver (mg protein/mL) in 0.15 M KCl—10 mM potassium phosphate buffer, pH 7.2, were heated for 15 min at 100 °C in the presence of 40% TCA + 5N HCl + 2% thiobarbituric acid (2:1:2 v/v) for color developing. After cooling and centrifugation, the absorbance was read at 532 nm against dd H2O as blank. The values were expressed in nmoles malondialdehyde (MDA) per mg protein, with a molar extinction coefficient of 1.56 × 10^−5 M^−1cm^−1.
female Jcl:ICR mice [7] = test system: female Jcl:ICR mice
[8] = test system: M. tuberculosis H37Rv reference strain; conditions: cited from earlier work
[9] = test system: Glutathione peroxidase in the liver supernatant; assay: Glutathione peroxidase activity in liver supernatant; type: in vivo, mice; conditions: 125 and 250 mg/kg oral, 14 days; vs controls
Description: as §2
The Glutathione Peroxidase Cellular Activity Assay Kit (Cat. No. CGP1) and Glutathione Reductase Assay Kit (Cat. No. GRSA) were used to measure the activities of glutathione-related enzymes.

COc1cc(C=NNC(=O)c2snnc2C)ccc1O [3a, N′-[(4-hydroxy-3-methoxyphenyl)methylidene]-4-methyl-1,2,3-thiadiazole-5-carbohydrazide]
Lethality (female Jcl:ICR mice [1]; 500 mg/kg b.w.): 0/3 | Lethality (female Jcl:ICR mice [1]; 1000 mg/kg b.w.): 0/3 | Symptoms before Death Occur (female Jcl:ICR mice [1]; 1500 mg/kg b.w.): Delayed reflexes, somnolence, lethal outcome | Time of Occurrence of Fatal Outcome (female Jcl:ICR mice [1]; 1500 mg/kg b.w.): After 30 h | Symptoms before Death Occur (female Jcl:ICR mice [1]; 2000 mg/kg b.w.): Impaired coordination, rapid breathing, lethal outcome | Time of Occurrence of Fatal Outcome (female Jcl:ICR mice [1]; 2000 mg/kg b.w.): After 24 h | Symptoms before Death Occur (female Jcl:ICR mice [1]; 3000 mg/kg b.w.): Respiratory failure with long pauses, ataxia, piloerection, seizures, lethal outcome | Time of Occurrence of Fatal Outcome (female Jcl:ICR mice [1]; 3000 mg/kg b.w.): After 20 h | HCT (male Jcl:ICR mice [2]; 125 mg/kg oral): 37.2 ± 2.6 ^+ % | Hgb (male Jcl:ICR mice [2]; 125 mg/kg oral): 127 ± 5.4 ^+ g/L | PLT (male Jcl:ICR mice [2]; 125 mg/kg oral): 979 ± 238 10^9/L | RBC (male Jcl:ICR mice [2]; 125 mg/kg oral): 6.84 ± 0.3 ^+ × 10^12/L | WBC (male Jcl:ICR mice [2]; 125 mg/kg oral): 6.3 ± 0.36 ^+ × 10^9/L | HCT (male Jcl:ICR mice [2]; 250 mg/kg oral): 38.2 ± 1.8 ^+ % | Hgb (male Jcl:ICR mice [2]; 250 mg/kg oral): 129 ± 3.8 ^+ g/L | PLT (male Jcl:ICR mice [2]; 250 mg/kg oral): 638 ± 181 10^9/L | RBC (male Jcl:ICR mice [2]; 250 mg/kg oral): 6.97± 0.3 ^+ × 10^12/L | WBC (male Jcl:ICR mice [2]; 250 mg/kg oral): 7.4 ± 0.44 *^+ × 10^9/L | CBC deviations from the reference values (male Jcl:ICR mice [2]; both doses (125 and 250 mg/kg) oral): no statistically significant deviations from the reference values | DPPH Scavenging, IC50 (DPPH assay): 47.5 * mg/mL | IC50 (HEK-293T): 257 µM | Body weight gain compared to the beginning of the experimental period (male Jcl:ICR mice [3]): 41% | ALAT (male Jcl:ICR mice [4]; 125 mg/kg oral): 62.2 ± 3.3 ^+ U/L | ALB (male Jcl:ICR mice [4]; 125 mg/kg oral): 26.6 ± 2.2 ^+ g/L | ASAT (male Jcl:ICR mice [4]; 125 mg/kg oral): 102 ± 3.6 ^+ U/L | CREAT (male Jcl:ICR mice [4]; 125 mg/kg oral): 95.6 ± 6.6 ^+ µmol/L | D-Bil (male Jcl:ICR mice [4]; 125 mg/kg oral): 3.4 ± 0.46 ^+ µmol/L | GLU (male Jcl:ICR mice [4]; 125 mg/kg oral): 6.3 ± 0.36 mmol/L | T-Bil (male Jcl:ICR mice [4]; 125 mg/kg oral): 7.6 ± 0.44 ^+ µmol/L | TP (male Jcl:ICR mice [4]; 125 mg/kg oral): 54.3 ± 2.6 ^+ g/L | UA (male Jcl:ICR mice [4]; 125 mg/kg oral): 163 ± 23.4 µmol/L | UREA (male Jcl:ICR mice [4]; 125 mg/kg oral): 8.8 ± 0.28 ^+ mmol/L | ALAT (male Jcl:ICR mice [4]; 250 mg/kg oral): 71.4 ± 3.4 *^+ U/L | ALB (male Jcl:ICR mice [4]; 250 mg/kg oral): 27.3 ± 3.1 ^+ g/L | ASAT (male Jcl:ICR mice [4]; 250 mg/kg oral): 113 ± 4.1 U/L | CREAT (male Jcl:ICR mice [4]; 250 mg/kg oral): 86.4 ± 5.6 ^+ µmol/L | D-Bil (male Jcl:ICR mice [4]; 250 mg/kg oral): 4.9 ± 0.34 ^+ µmol/L | GLU (male Jcl:ICR mice [4]; 250 mg/kg oral): 7.1 ± 0.24 mmol/L | T-Bil (male Jcl:ICR mice [4]; 250 mg/kg oral): 8.3 ± 0.28 ^+ µmol/L | TP (male Jcl:ICR mice [4]; 250 mg/kg oral): 58.6 ± 3.6 ^+ g/L | UA (male Jcl:ICR mice [4]; 250 mg/kg oral): 194 ± 17.7 µmol/L | UREA (male Jcl:ICR mice [4]; 250 mg/kg oral): 11.5 ± 0.22 ^+ mmol/L | LD50 at 14 days (in vivo): > 2500 mg/kg | ABTS Scavenging, IC50 (ABTS•+ assay): 89.47 * mg/mL | level of GSH in liver homogenate [5]: did not significantly increase the level of GSH | MDA content in the liver [6]: restoration of MDA to the control levels | resorption index (IR) = LD50 i.p./LD50 p.os. × 100 (female Jcl:ICR mice [7]; mice): ≈ 49%; also recorded: ≈ 98% | Mortality (female Jcl:ICR mice [7]; oral administration, highest dose of 3000 mg/kg): No mortality | MIC ([8]; ref [23]): 0.0730 µM (≈ 0.0213 µg/mL) | activity of GPx in liver [9]: restored the control values of GPx; also recorded: did not statistically significantly alter

COc1ccc2[nH]cc(C=NNC(=O)c3ccco3)c2c1 [3b, N′-[(5-methoxy-1H-indol-3-yl)methylidene]furan-2-carbohydrazide]
Lethality (female Jcl:ICR mice [1]; 500 mg/kg b.w.): 0/3 | Lethality (female Jcl:ICR mice [1]; 1000 mg/kg b.w.): 0/3 | Lethality (female Jcl:ICR mice [1]; 1500 mg/kg b.w.): 0/3 | Lethality (female Jcl:ICR mice [1]; 2000 mg/kg b.w.): 0/3 | Symptoms before Death Occur (female Jcl:ICR mice [1]; 3000 mg/kg b.w.): Impaired coordination, rapid breathing, clonic seizures, death | Time of Occurrence of Fatal Outcome (female Jcl:ICR mice [1]; 3000 mg/kg b.w.): After 3 h | HCT (male Jcl:ICR mice [2]; 125 mg/kg oral): 39.6 ± 0.8 ^+ % | Hgb (male Jcl:ICR mice [2]; 125 mg/kg oral): 132.2 ± 4.2 ^+ g/L | PLT (male Jcl:ICR mice [2]; 125 mg/kg oral): 729 ± 203 10^9/L | RBC (male Jcl:ICR mice [2]; 125 mg/kg oral): 7.21 ± 0.16 ^+ × 10^12/L | WBC (male Jcl:ICR mice [2]; 125 mg/kg oral): 8.2 ± 0.28 *^+ × 10^9/L | HCT (male Jcl:ICR mice [2]; 250 mg/kg oral): 40.1 ± 1.2 ^+ % | Hgb (male Jcl:ICR mice [2]; 250 mg/kg oral): 130.2 ± 3.7 ^+ g/L | PLT (male Jcl:ICR mice [2]; 250 mg/kg oral): 864 ± 212 10^9/L | RBC (male Jcl:ICR mice [2]; 250 mg/kg oral): 7.62 ± 0.24 ^+ × 10^12/L | WBC (male Jcl:ICR mice [2]; 250 mg/kg oral): 7.7 ± 0.33 *^+ × 10^9/L | DPPH Scavenging, IC50 (DPPH assay): 18.69 * mg/mL | IC50 (HEK-293T): 280 µM | Body weight gain compared to the beginning of the experimental period (male Jcl:ICR mice [3]): 44% | ALAT (male Jcl:ICR mice [4]; 125 mg/kg oral): 77.2 ± 2.8 *^+ U/L | ALB (male Jcl:ICR mice [4]; 125 mg/kg oral): 28.5 ± 3.3 ^+ g/L | ASAT (male Jcl:ICR mice [4]; 125 mg/kg oral): 112.1 ± 4.4 U/L | CREAT (male Jcl:ICR mice [4]; 125 mg/kg oral): 88.2 ± 3.1 ^+ µmol/L | D-Bil (male Jcl:ICR mice [4]; 125 mg/kg oral): 5.1 ± 0.23 ^+ µmol/L | GLU (male Jcl:ICR mice [4]; 125 mg/kg oral): 6.8 ± 0.22 mmol/L | T-Bil (male Jcl:ICR mice [4]; 125 mg/kg oral): 7.8 ± 0.23 ^+ µmol/L | TP (male Jcl:ICR mice [4]; 125 mg/kg oral): 56.6 ± 4.2 ^+ g/L | UA (male Jcl:ICR mice [4]; 125 mg/kg oral): 199 ± 14.6 µmol/L | UREA (male Jcl:ICR mice [4]; 125 mg/kg oral): 8.7 ± 0.26 ^+ mmol/L | ALAT (male Jcl:ICR mice [4]; 250 mg/kg oral): 71.2 ± 1.9 *^+ U/L | ALB (male Jcl:ICR mice [4]; 250 mg/kg oral): 28.2 ± 2.8 g/L | ASAT (male Jcl:ICR mice [4]; 250 mg/kg oral): 110 ± 3.1 U/L | CREAT (male Jcl:ICR mice [4]; 250 mg/kg oral): 92.2 ± 4.4 ^+ µmol/L | D-Bil (male Jcl:ICR mice [4]; 250 mg/kg oral): 3.8 ± 0.42 ^+ µmol/L | GLU (male Jcl:ICR mice [4]; 250 mg/kg oral): 7.0 ± 0.16 mmol/L | T-Bil (male Jcl:ICR mice [4]; 250 mg/kg oral): 8.1 ± 0.32 ^+ µmol/L | TP (male Jcl:ICR mice [4]; 250 mg/kg oral): 52.2 ± 5.1 ^+ g/L | UA (male Jcl:ICR mice [4]; 250 mg/kg oral): 201.3 ± 12 µmol/L | UREA (male Jcl:ICR mice [4]; 250 mg/kg oral): 8.4 ± 0.23 ^+ mmol/L | ABTS Scavenging, IC50 (ABTS•+ assay): 40.35 * mg/mL | level of GSH in liver homogenate [5]: did not significantly increase the level of GSH | MIC ([8]; ref [22]): 0.4412 µM (≈ 0.125 µg/mL) | activity of GPx in liver [9]: restored the control values of GPx; also recorded: did not statistically significantly alter

From paper PMC9862026, “In Vivo Toxicity, Redox-Modulating Capacity and Intestinal Permeability of Novel Aroylhydrazone Derivatives as Anti-Tuberculosis Agents” (Pharmaceutics, 2022)
